EPA's ToxRefDB 2

Experiments:
rat [1] = conditions: Fertility (Segment I), sprague dawley, Injection, Intraperitoneal, dose end: 7 GD
rat [2] = conditions: Sub-acute repeat dose toxicity, sprague dawley, Injection, Intraperitoneal, dose end: 30 day, group: systemic
rat [3] = conditions: Prenatal developmental toxicity study, sprague dawley, Oral, Gavage/Intubation, dose end: 15 GD
rat [4] = conditions: Combined chronic toxicity/carcinogenicity, sprague dawley, Oral, Feed, dose end: 104 week, group: systemic
rat [5] = conditions: Subchronic oral toxicity in rodents, sprague dawley, Feed, dose end: 90 day, group: systemic, systemic / in life observation / body weight / body weight + systemic / in life observation / body weight / body weight gain + systemic / in…
rat [6] = conditions: Multigenerational reproductive toxicity study, sprague dawley, Oral, Feed, dose end: 2 generation
dog = conditions: Chronic toxicity; beagle; Oral; Feed; dose end: 52 week; group: systemic; systemic / pathology microscopic / liver / degeneration + systemic / pathology microscopic / liver / hyperplasia + systemic / pathology …
primate = conditions: Subchronic oral toxicity in nonrodent, macaque, Gavage/Intubation, dose end: 28 day, group: systemic, systemic / clinical chemistry / [other] / [other] + systemic / in life observation / clinical signs / emesis + systemic / in life …
rat [7] = conditions: Sub-acute repeat dose toxicity, sprague dawley, Oral, Gavage/Intubation, dose end: 28 day, group: systemic
rat [8] = conditions: Chronic toxicity, sprague dawley, Oral, Gavage/Intubation, dose end: 26 week, group: systemic
[9] = group: maternal, reproductive / reproductive performance / implantations / implantations + reproductive / reproductive performance / preimplantation loss / …
[10] = group: parental, systemic / in life observation / body weight / body weight gain + systemic / organ weight / ovary / absolute + systemic / organ weight / …
[11] = systemic / clinical chemistry / creatinine / creatinine + systemic / in life observation / food consumption / food consumption + systemic / …
[12] = systemic / pathology microscopic / ovary / follicle count + systemic / in life observation / body weight / body weight
[13] = group: developmental, developmental / developmental malformation / bone / unossified
[14] = group: maternal, systemic / in life observation / clinical signs / drooping eyelids (ptosis) + systemic / in life observation / clinical signs / salivation…
[15] = systemic / in life observation / body weight / body weight + systemic / in life observation / body weight / body weight gain
[16] = systemic / in life observation / body weight / body weight + systemic / in life observation / body weight / body weight gain + systemic / …
[17] = group: offspring, systemic / in life observation / body weight / offspring (pup) weight + systemic / in life observation / body weight / offspring (pup) …
[18] = group: parental, systemic / in life observation / body weight / body weight + systemic / in life observation / body weight / body weight gain
[19] = systemic / clinical chemistry / alanine aminotransferase (alt/sgpt) / alanine aminotransferase (alt/sgpt) + systemic / clinical chemistry / …
[20] = systemic / hematology / platelet / platelet + systemic / in life observation / clinical signs / salivation
[21] = systemic / clinical chemistry / alanine aminotransferase (alt/sgpt) / alanine aminotransferase (alt/sgpt) + systemic / in life observation…

`C1CC2OC2CC1C1CO1` (configuration not stated) [4-Vinyl-1-cyclohexene dioxide] was tested, and the LEL (rat [1]; [9]) was 80 mg/kg/day, the LOAEL (rat [1]; [9]) was > 80 mg/kg/day and the NEL (rat [1]; [9]) was 20 mg/kg/day. For the same molecule, the NOAEL (rat [1]; [9]) was ≥ 80 mg/kg/day, the LEL (rat [1]; [10]) was 80 mg/kg/day and the LOAEL (rat [1]; [10]) was > 80 mg/kg/day. The NEL (rat [1]; [10]) was 20 mg/kg/day, the NOAEL (rat [1]; [10]) was ≥ 80 mg/kg/day and the LOAEL (rat [2]; [11]) was > 80 mg/kg/day. For the same molecule, the NOAEL (rat [2]; [11]) was ≥ 80 mg/kg/day, the LEL (rat [2]; [12]) was 40 mg/kg/day and the NEL (rat [2]; [12]) was < 40 mg/kg/day.

With `CCNc1nc(NC(C)C)nc(SC)n1` [Ametryn] the LEL (rat [3]; [13]) was 50 mg/kg/day, the LOAEL (rat [3]; [13]) was > 250 mg/kg/day and the NEL (rat [3]; [13]) was 5 mg/kg/day. The NOAEL (rat [3]; [13]) was ≥ 250 mg/kg/day, the LOAEL (rat [3]; group: maternal, systemic / in life observation / clinical signs / drooping eyelids (ptosis) + systemic / in life observation / clinical signs / salivation) was 50 mg/kg/day and the LEL (rat [3]; [14]) was 50 mg/kg/day. For the same molecule, the NEL (rat [3]; [14]) was 5 mg/kg/day, the NOAEL (rat [3]; [14]) was 5 mg/kg/day and the LEL (rat [4]; [15]) was 20.9 mg/kg/day. The LOAEL (rat [4]; [15]) was 20.9 mg/kg/day, the NEL (rat [4]; [16]) was 2 mg/kg/day and the NOAEL (rat [4]; [16]) was 2 mg/kg/day. For the same molecule, the LEL (rat [5]) was 36.1 mg/kg/day, the LOAEL (rat [5]) was 36.1 mg/kg/day and the NEL (rat [5]) was 7.4 mg/kg/day. For the same molecule, the NOAEL (rat [5]) was 7.4 mg/kg/day, the LEL (rat [6]; [17]) was 131 mg/kg/day and the LOAEL (rat [6]; [17]) was 131 mg/kg/day. For the same molecule, the NEL (rat [6]; [17]) was 13 mg/kg/day, the NOAEL (rat [6]; [17]) was 13 mg/kg/day and the LEL (rat [6]; [18]) was 131 mg/kg/day. The LOAEL (rat [6]; [18]) was 131 mg/kg/day, the NEL (rat [6]; [18]) was 13 mg/kg/day and the NOAEL (rat [6]; [18]) was 13 mg/kg/day. For the same molecule, the LEL (dog) was 70 mg/kg/day, the LOAEL (dog) was 70 mg/kg/day and the NEL (dog) was 7.2 mg/kg/day. It also gave an NOAEL (dog) of 7.2 mg/kg/day.

For `CCCCN1C(=O)[C@@H]([C@H](O)C2CCCCC2)NC(=O)C12CCN(Cc1ccc(Oc3ccc(C(=O)O)cc3)cc1)CC2.Cl` [Aplaviroc hydrochloride], the LEL (primate) was 30 mg/kg/day, the LOAEL (primate) was > 1000 mg/kg/day and the NEL (primate) was < 30 mg/kg/day. For the same molecule, the NOAEL (primate) was ≥ 1000 mg/kg/day, the LOAEL (rat [7]; [19]) was > 1000 mg/kg/day and the NOAEL (rat [7]; [19]) was ≥ 1000 mg/kg/day. For the same molecule, the LEL (rat [7]; [20]) was 30 mg/kg/day, the NEL (rat [7]; [20]) was < 30 mg/kg/day and the LOAEL (rat [8]; [19]) was > 750 mg/kg/day. The NOAEL (rat [8]; [19]) was ≥ 750 mg/kg/day, the LEL (rat [8]; [21]) was 100 mg/kg/day and the NEL (rat [8]; [21]) was < 100 mg/kg/day.
